Data set [1] is described as follows: Toxicity in C57BL/6 mouse allografted with mouse MC38 cells assessed as alkaline phosphatase (AKP) level in serum at 50 mg/kg, po treated 5 days after cell inoculation 19 th day. The data set is classed as organism-based. The note with it: in vivo, 360 h, time 15 day.
In data set [2] the test system is MC-38. Nature of the data set: In vivo antitumor activity against mouse MC38 cells allografted in C57BL/6 mouse assessed as tumor growth inhibition at 50 mg/kg, po treated 5 days after cell inoculation 19 th day relative to control. The data set is classed as functional. Particulars: MC-38, 360 h, time 15 day, read-out: TGI.
Data set [3] is described as follows: AUC (0 to infinity) in Sprague-Dawley rat at 20 mg/kg, po measured upto 12 hrs by LC-MS/MS analysis. The note with it: in vivo. The format is ADME, organism-based.
For data set [4], the system named is MC-38. Nature of the data set: In vivo antitumor activity against MC38 cells allografted in C57BL/6 mouse assessed as tumor growth inhibition in presence of NP19 PD-L1 inhibitor at 50 mg/kg, po treated 5 days after cell inoculation 19 th day relative to control. The data set is classed as functional. Particulars: MC-38, 360 h, time 15 day, read-out: TGI.
Data set [5] deals with MC-38. Nature of the data set: Induction of PD-L1 expression in mouse MC38 cells in presence of JQ-1 BRD4 inhibitor at 2 uM measured after 24 hrs incubation by Western blot analysis. The data set is classed as functional, cell-based.
The test system of a further data set is Mus musculus. Nature of the data set: Induction of PD-L1 expression in tumor in C57BL/6 mouse allografted with mouse MC38 cells in presence of NP19 PD-L1 inhibitor at 50 mg/kg, po treated 5 days after cell inoculation 19 th day by immunofluorescence analysis. The data set is classed as functional, organism-based. The note with it: time 15.0 day.
The test system of data set [6] is MC-38. In words: Induction of mitochondrial membrane damage in mouse MC38 cells assessed as increase in JC-1 monomers by measuring green fluorescence at 2 uM measured after 48 hrs (reference value: 3.13%). The data set is classed as functional.

The source made the active and inactive calls. No cut-off for these calls is given here.

Consider one compound from ChEMBL document CHEMBL6121046, “Discovery of Novel Hydrazide-Based HDAC3 Inhibitors as Epigenetic Immunomodulators for Cancer Immunotherapy” (J Med Chem, 2025).

The term AUC denotes concentration integrated over time. On to `CCCNNC(=O)c1ccc(CNC(=O)c2cnc(-c3ccc4occc4c3)[nH]2)cc1`, for which the Activity result in data set [1] was “Non-toxic”; in the data set on MC-38 [6], 8%. The inhibition in vivo at 50 mg/kg in the data set on MC-38 [2] was found to be 63%; with MC-38 [4], 80%. In data set [3], this compound came in with an AUC of 1429.8 ng·h/mL. Besides, the outcome with MC-38 [5] and in the data set with Mus musculus was Active.
